# System: YAP localization
# Assay: YAP cytoplasmic/nuclear localization (cell fractionation and immunofluorescence)
# Type: cell-based, human
# Conditions: 50 nM, 6 h
# Description: Levels of total YAP were determined via ELISA. […] Immunoprecipitates were immunoblotted for the indicated proteins. […] Cells were treated with the indicated concentrations of inhibitor for 18 h and mRNA extracted for real time RT-PCR analyses. Measurements were performed in quadruplicate and means and+S.D. are shown. […] […] Cytoplasmic versus nuclear material was subsequently immunoblotted for the indicated proteins. […] Values in top right corner of panels correspond to the percentage of nuclear localized YAP. Cells were grown on coverslips and treated with NSC682769. Cells were permeabilized and stained using primary antibody to YAP1 and FITC-conjugated secondary. Nuclei were stained with DAPI. Scale bar, 20 μm.
# Surface plasmon resonance (SPR), ELISA, YAP-TEAD reporter activity, cellular fractionation, and immunofluorescence analyses. SPR experiments were carried out on a Nicoya OpenSPR™ instrument using immobilized YAP on a carboxyl-coated sensor. Binding was observed as the change in response units (RU) as analyte was injected at a flow rate of 10 μl/min at 25° C. TraceDrawer™ was used for kinetic analyses. The PathScan® total-YAP ELISA kit was obtained from Cell Signaling and used according to the manufacturer's instructions. YAP-TEAD reporter activity was determined as previously described (Kim N G, Gumbiner B M (2015) J Cell Biol 210: 503-515). HOP-flash contains multiple copies of wild-type TEAD-binding sites with a minimal promoter upstream of a luciferase reporter gene. Luciferase activity was measured via a luciferase assay system (Promega). Nuclear-cytoplasmic fractionation was performed according to Dignam et al. (Dignam J D, et al. (1983) Nucleic Acids Res 11: 1475-1489). Briefly, the buffers used were kept on ice and centrifugations were done at 4° C. with soft braking. After a single wash with PBS, cells were scraped with PBS (containing 1 mM DTT and 1× protease inhibitor) and harvested by centrifugation at 1000×g for 15 min. […] Cell lysis was monitored by trypan blue staining. […]
smiles,measurement,setting,value
COc1ccc(-c2cc(-c3ccccc3)nc3c2CC(=O)Nc2ccccc2-3)cc1OC [NSC682769],Relative amount of nuclear YAP (immunofluorescence),"GBM39 cells, untreated 53%",19%
same,Relative amount of nuclear YAP (immunofluorescence),"LN229 cells, untreated 67%",26%
same,Nuclear versus cytoplasmic YAP by cell fractionation,LN229 or GBM39 cells,reduction of nuclear YAP and a concomitant accumulation of cytoplasmic YAP

# Source: patent US20240108634A1, “COMPOSITIONS AND METHODS FOR INHIBITING YAP” (The United States Government as represented by the …, priority 2021, published 2024)
